Read-outs that look alike come from different tables or passages of the source.
Assays:
[1] = test system: pyramidal neurons in layers III and IV of the posterior cingulate and retrosplenial (PC/RS) cortices; experiment: In vivo assay of toxic side effects of NMDA antagonists (vacuole formation in PC/RS cortex); details: adult female rats, ip, sacrificed four hours after treatment
NMDA receptors = format: cell-based, chick
Protocol: Potency rating=minimum concentration required to provide total protection against neurotoxic effects of NMDA (40 μM) in chick embryo retinal tissue tests
These experiments were performed using segments of chick embryo retina. This is a widely used model for studying the production and prevention of excitotoxic phenomena, since it is a simple and inexpensive preparation, and since chick tissue provides a better model of adult mammalian neurons than embryonic or juvenile mammalian tissue. All of the glutamate receptors that mediate excitotoxic phenomena are present in chick retinas, and are sensitive to excitotoxic stimulation. By contrast, in embryonic or juvenile mammalian tissue, various glutamate receptors are not fully matured and are not responsive in the same ways that occur in adult mammalian tissue.
In these tests, NMDA is introduced into the incubation medium in a concentration ([…]) sufficient to produce a fully developed excitotoxic lesion within 30 min, displaying acute degeneration and necrosis of the majority of neurons in the inner layers of the retina. The control retinas are incubated with NMDA alone, and experimental retinas are incubated with NMDA plus a test compound that is being evaluated for NMDA antagonist properties. […] All agents that prevent NMDA from hyperactivating NMDA receptors and thereby inducing an excitotoxic neurodegenerative reaction in the chick embryo retina are considered appropriate candidate drugs for preventing NMDA receptor hyperactivation and NMDA receptor burnout in the presymptomatic stages of Alzheimer's disease.
The concentration of the test compound required to prevent NMDA from inducing neuronal degeneration in the chick retina tissue is considered a measure of its expected potency for preventing NMDA receptor hyperactivation and NMDA receptor burnout in the presymptomatic stages of Alzheimer's disease.

vacuolated PC/RS neurons [2] = format: in vivo, rat; details: NBQX 15 mg/kg ip every 30 minutes, 4 injections, with MK-801 0.5 mg/kg; 4 h; ± SEM
Description: The rats were sacrificed four hours after the treatment began, and brain tissue from the PC/RS region was histologically evaluated, by previously described methods (Olney et al 1991) using double-blinded techniques. The number of vacuolated PC/RS neurons were counted on each side of the brain at a rostrocaudal level immediately posterior to where the corpus callosum ceases decussating across the midline (approximately 5.6 mm caudal to Bregma; see Paxinos & Watson, The Rat Brain in Stereotaxic Coordinates, 2nd ed., 1986).

vacuolated PC/RS neurons [3] = format: in vivo, rat; details: MK-801 ip
Protocol: To try to avoid that problem, a subsequent set of tests was carried out in which NBQX was microinjected directly into the PC/RS cortex, at one of two doses, either 0.025 or 0.25 nmols.

cerebrocortical neurons = details: Olney et al 1989, Corso et al 1994; cited from earlier work
[4] = human anesthesia; cited from earlier work
[5] = test system: neurons in neocortical and limbic brain regions; experiment: Histopathology of rat brain after PCP/pilocarpine treatment; format: in vivo; details: PCP 50 mg/kg i.p. combined with pilocarpine 10 mg/kg i.p.
Protocol: Adult female rats were injected subcutaneously with an NMDA antagonist drug, phencyclidine (PCP), at 50 milligrams of drug per kilogram of body weight (mg/kg sc), accompanied by a small dose of a muscarinic agonist, pilocarpine (10 mg/kg sc). At various times (4, 16, 24, 48, 72 and 96 hours) after treatment, the rats were anesthetized and perfused with fixative to allow their brains to be prepared for histological evaluation.
Degenerating neurons in various brain regions were also examined by electron microscopy, to obtain evidence for loss of synaptic complexes, and a computer-assisted cell plotting system was used to plot the location and count the frequency with which degenerating neurons were found in each brain region.
Massive loss of neurons throughout many neocortical and limbic brain regions is a hallmark characteristic of Alzheimer's disease. To establish that the NR/hypo mechanism results not only in cell injury but in cell death, the Applicants systematically examined the brains of rats 4 days following PCP/pilocarpine treatment. Sections prepared at 1 millimeter intervals from one side of the brain were stained, using hematoxylin and eosin; sections prepared at 1 millimeter intervals from the other side of the brain were stained using a silver impregnation stain. […]

neurons in rat brain = experiment: PCP alone (minipump infusion or single high dose), brain damage in rats; format: in vivo
Description: Initially, the Applicants found it difficult to perform a detailed analysis of the full pattern and type of damage that can be induced in the adult rat brain by treatment with an NMDA antagonist because of technical problems that had to be overcome. Therefore, the Applicants tried several approaches. For example, it had been claimed (Ellison 1994) that when PCP is infused continuously in adult rats for five days, by a subcutaneously implanted minipump, it causes injury to nerve cells in several brain regions.
However, they found (Corso et al 1994) that even when a near lethal dose (50-80 mg/kg sc) was administered, a fully developed widespread pattern of damage could only be induced in a very small percentage of treated animals.

SMILES	neurotoxic (vacuole) reaction in PC/RS cortex, drug by itself [1]	POTENCY RATING = minimum concentration required to provide total protection against neurotoxic effects of NMDA (NMDA receptors; NMDA 40 μM, chick embryo retinal tissue) [µM]	vacuolated neurons in PC/RS cortex, MK-801 plus NBQX (vacuolated PC/RS neurons [2])	reduction of vacuoles, protected (ipsilateral) side, lower dosage (vacuolated PC/RS neurons [3]; NBQX 0.025 nmols microinjected into PC/RS cortex)	reduction of vacuoles, protected (ipsilateral) side, higher dosage (vacuolated PC/RS neurons [3]; NBQX 0.25 nmols microinjected into PC/RS cortex)	POTENCY RATING = minimum concentration required to provide total protection against neurotoxic effects of NMDA (NMDA receptors) [µM]	pathological changes in cerebral cortex / corticolimbic regions of adult rats (cerebrocortical neurons)	duration of action [4]	NR/hypo-induced brain damage, PCP combined with pilocarpine [5]	rats with a full pattern of damage out of 40 rats treated (neurons in rat brain; PCP 50 mg/kg i.p., single dose)	neuronal damage after continuous infusion by subcutaneous minipump (neurons in rat brain; adult rats, five days, same dose as Ellison 1994)	near lethal dose (neurons in rat brain; rats)
NS(=O)(=O)c1cccc2c1c([N+](=O)[O-])cc1nc(O)c(O)nc12 [NBQX]	did not cause vacuoles	100	52±22.4 vacuolated neurons per microscopic section	about 20%	about 80%	–	–	–	–	–	–	–
CNC1(c2ccccc2Cl)CCCCC1=O (centres unmarked) [Ketamine]	–	–	–	–	–	10	cause pathological changes in the cerebral cortex of adult rats	about 15 minutes	–	–	–	–
c1ccc(C2(N3CCCCC3)CCCCC2)cc1 [Phencyclidine]	–	–	–	–	–	1	produce pathological changes in various corticolimbic regions of the adult rat brain	–	reliably and consistently produced severe levels of NR/hypo-induced damage	1	produced no neuronal damage at all	50-80 mg/kg sc
